According to publication PMC11243693, “Synthesis and Biological Evaluation of New Compounds with Nitroimidazole Moiety” (Molecules, 2024):
Values after ≈ are worked out from the molar mass of the structure shown. Read-outs that look alike come from different tables or passages of the source. Each block holds one compound with its values, some of them ahead of it.

Assays:
Type in all cases: cell-based
[1] = test system: Staphylococcus aureus ATCC 25923; assay: Broth microdilution, S. aureus ATCC 25923; settings: Sa 25923
Experimental: (§1) The antibacterial activity of the obtained thiosemicarbazides and hydrazide–hydrazones was determined by evaluating their ability to inhibit microbial growth in vitro using the broth microdilution method, according to the guidelines of the European Committee on Antimicrobial Susceptibility Testing (EUCAST). The method involved the preparation of microbial suspensions with a standardized density of 0.5 on the McFarland scale (equivalent to 1.5 × 10^8 colony-forming units/mL for bacteria and […] for fungi). A solution of the test substances was then prepared (initial concentration 1000 µg/mL, diluted in sterile Mueller-Hinton broth for bacteria or Mueller-Hinton with 2% glucose for fungi). The test was carried out in 96-well polystyrene flat-bottom plates (Medlab, Poland) with 100 µL of appropriate sterile microbiological medium in each well. The first wells were filled with 200 µL of the test substance, diluted to the initial concentration, and then double-decreasing dilutions were made under aseptic conditions using an automatic pipette. The final step was the addition of a 10-fold diluted microbial suspension of 2 µL. At the same time, the following controls were included: (a) medium control (100 µL of sterile medium without microorganisms added), (b) microbial viability control, (c) test substance control (dilutions without added micro-organisms), (d) positive control of the drug used in the clinic. The plates thus prepared were incubated for 18 ± 2 h at 35 ± 2 °C under conditions optimal for the growth of the test microorganisms. After incubation, the spectrophotometric absorbance at 570 nm in each well of the plate was read. The aim of this part of the study was to determine two parameters: the minimum inhibitory concentration (MIC) and the minimum bactericidal or fungicidal concentration (MBC/MFC) of the test compound. […] The MBC value was determined by adding 5 µL of the contents of each well of the plate to solid sterile MHA or MHA + 2%glc medium for bacteria and fungi, respectively. The area on the plate where 99.9% inhibition of microbial growth was observed indicated the lethal concentration. In addition, the quotient MBC(MFC)/MIC could be determined to assess the nature of the activity of the test substance. If MBC(MFC)/MIC was <4, the test substance was bactericidal/fungicidal, whereas if MBC(MFC)/MIC was ≥4, it was bacteriostatic/fungistatic. Amoxicillin (Glentham Life Sciences, USA) and nystatin (Glentham Life Sciences, USA) were used as the controls for this assay.
(§2) The test was performed either on bacteria, comprising: Gram-positive (Staphylococcus aureus ATCC 25923, Staphylococcus aureus ATCC 6538, Staphylococcus aureus ATCC 43300 methicillin-resistant MRSA, Staphylococcus epidermidis ATCC 12228, Micrococcus luteus ATCC 10240, Bacillus subtilis ATCC 6633, Bacillus cereus ATCC 10876) and Gram-negative (Escherichia coli ATCC 25922, Pseudomonas aeruginosa ATCC 27853, Proteus mirabilis ATCC 12453, Klebsiella pneumoniae ATCC 13883) or yeast (Candida parapsilosis ATCC 22019, Candida glabrata ATCC 90030, Candida krusei ATCC 14243, Candida glabrata ATCC 15126, Candida tropicalis ATCC 1369, Candida auris CDC B11903, Candida lusitaniae ATCC 3449) reference strains from the American Type Culture Collection (ATCC) or the Centers for Disease Control and Prevention (CDC).

[2] = test system: Staphylococcus aureus ATCC 6538; assay: Broth microdilution, S. aureus ATCC 6538; settings: Sa 6538
Experimental: as §1, §2

[3] = test system: Staphylococcus aureus ATCC 43300 methicillin-resistant MRSA; assay: Broth microdilution, S. aureus ATCC 43300 MRSA; settings: Sa 43300 MRSA
Experimental: as §1, §2

[4] = test system: Staphylococcus epidermidis ATCC 12228; assay: Broth microdilution, S. epidermidis ATCC 12228; settings: Se 12228; for MBC/MIC Ratio: <4 bactericidal, ≥4 bacteriostatic
Experimental: as §1, §2

[5] = test system: Micrococcus luteus ATCC 10240; assay: Broth microdilution, M. luteus ATCC 10240; settings: Ml 10240; for MBC/MIC Ratio: <4 bactericidal, ≥4 bacteriostatic
Experimental: as §1, §2

[6] = test system: Bacillus subtilis ATCC 6633; assay: Broth microdilution, B. subtilis ATCC 6633; settings: Bs 6633; for MBC/MIC Ratio: <4 bactericidal, ≥4 bacteriostatic
Experimental: as §1, §2

[7] = test system: Bacillus cereus ATCC 10876; assay: Broth microdilution, B. cereus ATCC 10876; settings: Bc 10876; for MBC/MIC Ratio: <4 bactericidal, ≥4 bacteriostatic
Experimental: as §1, §2

[8] = test system: Candida parapsilosis ATCC 22019; assay: Broth microdilution, C. parapsilosis ATCC 22019; settings: Cp 22019
Experimental: as §1, §2

[9] = test system: Candida glabrata ATCC 90030; assay: Broth microdilution, C. glabrata ATCC 90030; settings: Cg 90030
Experimental: as §1, §2

[10] = test system: Candida krusei ATCC 14243; assay: Broth microdilution, C. krusei ATCC 14243; settings: Ck 14243
Experimental: as §1, §2

[11] = test system: Candida glabrata ATCC 15126; assay: Broth microdilution, C. glabrata ATCC 15126; settings: Cg 15126
Experimental: as §1, §2

[12] = test system: Candida tropicalis ATCC 1369; assay: Broth microdilution, C. tropicalis ATCC 1369; settings: Ct 1369
Experimental: as §1, §2

Candida auris CDC B11903 = assay: Broth microdilution, C. auris CDC B11903; settings: Ca B11903
Experimental: as §1, §2

[13] = test system: Candida lusitaniae ATCC 3449; assay: Broth microdilution, C. lusitaniae ATCC 3449; settings: Cl 3449
Experimental: as §1, §2

MIC [1]: 500 µg/mL (≈ 1430 µM)
MIC [2]: 1000 µg/mL (≈ 2850 µM)
MIC [3]: 1000 µg/mL (≈ 2850 µM)
MIC [4]: 500 µg/mL (≈ 1430 µM)
MIC [5]: 250 µg/mL (≈ 714 µM)
MIC [6]: 250 µg/mL (≈ 714 µM)
MIC [7]: 250 µg/mL (≈ 714 µM)
MIC [8]: 250 µg/mL (≈ 714 µM)
MIC [9]: >1000 µg/mL
MIC [10]: >1000 µg/mL
MIC [11]: >1000 µg/mL
MIC [12]: 250 µg/mL (≈ 714 µM)
MIC (Candida auris CDC B11903): >1000 µg/mL
MIC [13]: >1000 µg/mL
Compound: COc1ccc(NC(=S)NNC(=O)c2nc([N+](=O)[O-])cn2C)cc1 [Compound 11]
MBC [1]: >1000 µg/mL
MBC [2]: >1000 µg/mL
MBC [3]: >1000 µg/mL
MBC [4]: >1000 µg/mL
MBC [5]: 500 µg/mL (≈ 1430 µM)
MBC/MIC Ratio [5]: 2
MBC [6]: 250 µg/mL (≈ 714 µM)
MBC/MIC Ratio [6]: 1
MBC [7]: 250 µg/mL (≈ 714 µM)
MBC/MIC Ratio [7]: 1
MFC [8]: >1000 µg/mL
MFC [12]: >1000 µg/mL

MIC [1]: 62.5 µg/mL (≈ 176 µM)
MIC [2]: 125 µg/mL (≈ 352 µM)
MIC [3]: 125 µg/mL (≈ 352 µM)
MIC [4]: 125 µg/mL (≈ 352 µM)
MIC [5]: 125 µg/mL (≈ 352 µM)
MIC [6]: 62.5 µg/mL (≈ 176 µM)
MIC [7]: 250 µg/mL (≈ 705 µM)
MIC [8]: 62.5 µg/mL (≈ 176 µM)
MIC [9]: >1000 µg/mL
MIC [10]: >1000 µg/mL
MIC [11]: >1000 µg/mL
MIC [12]: 500 µg/mL (≈ 1410 µM)
MIC (Candida auris CDC B11903): >1000 µg/mL
MIC [13]: >1000 µg/mL
Compound: Cn1cc([N+](=O)[O-])nc1C(=O)NNC(=S)Nc1ccc(Cl)cc1 [Compound 5]
MBC [1]: >1000 µg/mL
MBC [2]: >1000 µg/mL
MBC [3]: >1000 µg/mL
MBC [4]: 125 µg/mL (≈ 352 µM)
MBC/MIC Ratio [4]: 1
MBC [5]: 125 µg/mL (≈ 352 µM)
MBC/MIC Ratio [5]: 1
MBC [6]: 62.5 µg/mL (≈ 176 µM)
MBC/MIC Ratio [6]: 1
MBC [7]: 250 µg/mL (≈ 705 µM)
MBC/MIC Ratio [7]: 1
MFC [8]: >1000 µg/mL
MFC [12]: >1000 µg/mL

MIC ([1]; Staphylococcus aureus, ATCC25923, read-out: MIC): 250 µg/mL (≈ 748 µM)
MIC ([2]; Staphylococcus aureus, ATCC6538, read-out: MIC): 62.5 µg/mL (≈ 187 µM)
MIC ([3]; Staphylococcus aureus, read-out: MIC): 125 µg/mL (≈ 374 µM)
MIC ([4]; Staphylococcus epidermidis, ATCC12228, read-out: MIC): 500 µg/mL (≈ 1500 µM)
MIC ([5]; Micrococcus luteus, ATCC10240, read-out: MIC): 500 µg/mL (≈ 1500 µM)
MIC ([6]; Bacillus subtilis, ATCC6633, read-out: MIC): 500 µg/mL (≈ 1500 µM)
MIC ([7]; Bacillus cereus, ATCC10876, read-out: MIC): 250 µg/mL (≈ 748 µM)
MIC ([8]; Lodderomyces parapsilosis, ATCC22019, read-out: MIC): 500 µg/mL (≈ 1500 µM)
MIC ([9]; Nakaseomyces glabratus, ATCC90030, read-out: MIC): > 1000 µg/mL
MIC ([10]; Pichia kudriavzevii, ATCC14243, read-out: MIC): > 1000 µg/mL
MIC ([11]; Nakaseomyces glabratus, ATCC15126, read-out: MIC): > 1000 µg/mL
MIC ([12]; Candida tropicalis, ATCC1369, read-out: MIC): > 1000 µg/mL
MIC (Candida auris CDC B11903; Candidozyma auris, CDCB11903, read-out: MIC): > 1000 µg/mL
MIC ([13]; Clavispora lusitaniae, ATCC3449, read-out: MIC): > 1000 µg/mL
Compound: Cc1cccc(NC(=S)NNC(=O)c2nc([N+](=O)[O-])cn2C)c1 [Compound 16, 1-[(1-methyl-4-nitroimidazol-2-yl)carbonyl]-4-(3-methylphenyl)-thiosemicarbazide]
MBC ([1]; Staphylococcus aureus, ATCC25923, read-out: MBC): > 1000 µg/mL
MBC ([2]; Staphylococcus aureus, ATCC6538, read-out: MBC): > 1000 µg/mL
MBC ([3]; Staphylococcus aureus, read-out: MBC): > 1000 µg/mL
MBC/MIC Ratio [4]: 1
MBC ([4]; Staphylococcus epidermidis, ATCC12228, read-out: MBC): 500 µg/mL (≈ 1500 µM)
MBC ([5]; Micrococcus luteus, ATCC10240, read-out: MBC): > 1000 µg/mL
MBC ([6]; Bacillus subtilis, ATCC6633, read-out: MBC): 500 µg/mL (≈ 1500 µM)
MBC/MIC Ratio [6]: 1
MBC ([7]; Bacillus cereus, ATCC10876, read-out: MBC): > 1000 µg/mL
MFC ([8]; Lodderomyces parapsilosis, ATCC22019, read-out: MFC): > 1000 µg/mL
